Measurements taken from patent US5049654A, “Calcitonin gene related peptide derivatives” (Toyo Jozo Kabushiki Kaisha, priority 1986, dated 1991).
Positions of bridges follow the written chain, without caps; N, C: chain ends. Non-standard residues stand in square brackets, D forms with d. Residues, ends and D or L forms follow the SMILES beside them. Asu = N[C@@H](CCCCCC(=O)O)C(=O)O; Mpa = O=C(O)CCS

Tests used:
[1] = tested on: Wistar rats; assay: Serum calcium reducing activity, i.v. into the tail vein of Wistar rats, atomic adsorption spectrophotometry; type: in vivo; details: rat; for reduction of serum calcium concentration as compared with control group: vs dissolving medium group
Experimental: (§1) Desalanyl-deamino-c-CGRP, desalanyl-[Asu^2,7 -c-CGRP and desalanyl-[Asp^3, Asu^2,7 ]-c-CGRP (each 80 μg), and c-CGRP (Japan. Patent Unexam. Publ. No. 61-273581) and known h-CGRP (each 80 μg for control group) dissolved in citrate buffer, pH 6.5, containing 0.1% bovine serum albumin (hereinafter designated dissolving medium) (1 ml) were administered intravenously into the tail vein of Wistar rats, body weight 80-90 g, 5-6 rats in one group, at 20 or 80 μg/kg. After 30 and 60 mins. of administration, blood samples were collected from the abdominal descending aorta. The serum calcium concentration was measured by atomic adsorption spectrophotometry. Serum phosphate was measured by a method according to Goldenberg et al. [Clin. Chem., 12: 872-882 (1966)].

[2] = Physical properties: pI; type: physicochemical
[3] = tested on: Wistar rats; assay: Serum phosphate reducing activity, i.v. into the tail vein of Wistar rats, method of Goldenberg et al.; type: in vivo; details: rat; for reduction of serum phosphate concentration as compared with control group: vs dissolving medium group
Experimental: as §1

[4] = test peptide 20 μg/kg vs c-CGRP 20 μg/kg
[5] = test peptide 20 μg/kg vs h-CGRP 80 μg/kg
[6] = test peptide 80 μg/kg vs c-CGRP at equivalent dose
[7] = test peptide 80 μg/kg vs h-CGRP 80 μg/kg

| Structure (SMILES) | duration of serum calcium reducing activity ([1]; 20 μg/kg i.v.) [h] | reduction of serum calcium concentration as compared with control group ([1]; 20 μg/kg i.v., FIG. 1) | duration of serum calcium reducing activity ([1]; 80 μg/kg i.v.) | reduction of serum calcium concentration as compared with control group ([1]; 80 μg/kg i.v., FIGS. 1 and 3) | serum calcium reducing activity compared with c-CGRP [1, 4] | serum calcium reducing activity compared with h-CGRP [1, 5] | serum calcium reducing activity compared with c-CGRP [1, 6] | serum calcium reducing activity compared with h-CGRP [1, 7] | pI [2] | duration of serum phosphate reducing activity ([3]; 20 μg/kg i.v.) [h] | reduction of serum phosphate concentration as compared with control group ([3]; 20 μg/kg i.v., FIG. 2) | duration of serum phosphate reducing activity ([3]; 80 μg/kg i.v.) | reduction of serum phosphate concentration as compared with control group ([3]; 80 μg/kg i.v., FIGS. 2 and 4) | serum phosphate reducing activity compared with c-CGRP [3, 4] | serum phosphate reducing activity compared with h-CGRP [3, 5] | serum phosphate reducing activity compared with c-CGRP [3, 6] | serum phosphate reducing activity compared with h-CGRP [3, 7] |
| --- | --- | --- | --- | --- | --- | --- | --- | --- | --- | --- | --- | --- | --- | --- | --- | --- | --- |
| CC(C)C[C@H](NC(=O)[C@H](CCCNC(=N)N)NC(=O)[C@H](Cc1c[nH]cn1)NC(=O)[C@@H](NC(=O)[C@@H](NC(=O)[C@@H]1CSSCCC(=O)N[C@@H](CC(N)=O)C(=O)N[C@@H]([C@@H](C)O)C(=O)N[C@@H](C)C(=O)N[C@@H]([C@@H](C)O)C(=O)N1)C(C)C)[C@@H](C)O)C(=O)N[C@@H](C)C(=O)N[C@@H](CC(=O)O)C(=O)N[C@@H](Cc1ccccc1)C(=O)N[C@@H](CC(C)C)C(=O)N[C@@H](CO)C(=O)N[C@@H](CCCNC(=N)N)C(=O)N[C@@H](CO)C(=O)NCC(=O)NCC(=O)N[C@H](C(=O)NCC(=O)N[C@@H](CCCCN)C(=O)N[C@@H](CC(N)=O)C(=O)N[C@@H](CC(N)=O)C(=O)N[C@@H](Cc1ccccc1)C(=O)N[C@H](C(=O)N1CCC[C@H]1C(=O)N[C@H](C(=O)N[C@@H](CC(N)=O)C(=O)N[C@H](C(=O)NCC(=O)N[C@@H](CO)C(=O)N[C@@H](CCCCN)C(=O)N[C@@H](C)C(=O)N[C@@H](Cc1ccccc1)C(N)=O)C(C)C)[C@@H](C)O)C(C)C)C(C)C [desalanyl-deamino-c-CGRP] ([Mpa]NTATCVTHRLADFLSRSGGVGKNNFVPTNVGSKAF-NH2; disulfide 1-6) | ≥ 2 | more than 30% | ≥ 2 h | more than 30% | significantly strong as compared with c-CGRP | stronger than those of h-CGRP administered in quadruple the amounts | stronger | stronger than those of h-CGRP | more than 10.25 | ≥ 2 | more than 30% | ≥ 2 h | more than 30% | significantly strong as compared with c-CGRP | stronger than those of h-CGRP administered in quadruple the amounts | stronger | stronger than those of h-CGRP |
| CC(C)C[C@H](NC(=O)[C@H](CCCNC(=N)N)NC(=O)[C@H](Cc1c[nH]cn1)NC(=O)[C@@H](NC(=O)[C@@H](NC(=O)[C@@H]1CCCCCC(=O)N[C@@H](CC(=O)O)C(=O)N[C@@H]([C@@H](C)O)C(=O)N[C@@H](C)C(=O)N[C@@H]([C@@H](C)O)C(=O)N1)C(C)C)[C@@H](C)O)C(=O)N[C@@H](C)C(=O)N[C@@H](CC(=O)O)C(=O)N[C@@H](Cc1ccccc1)C(=O)N[C@@H](CC(C)C)C(=O)N[C@@H](CO)C(=O)N[C@@H](CCCNC(=N)N)C(=O)N[C@@H](CO)C(=O)NCC(=O)NCC(=O)N[C@H](C(=O)NCC(=O)N[C@@H](CCCCN)C(=O)N[C@@H](CC(N)=O)C(=O)N[C@@H](CC(N)=O)C(=O)N[C@@H](Cc1ccccc1)C(=O)N[C@H](C(=O)N1CCC[C@H]1C(=O)N[C@H](C(=O)N[C@@H](CC(N)=O)C(=O)N[C@H](C(=O)NCC(=O)N[C@@H](CO)C(=O)N[C@@H](CCCCN)C(=O)N[C@@H](C)C(=O)N[C@@H](Cc1ccccc1)C(N)=O)C(C)C)[C@@H](C)O)C(C)C)C(C)C [desalanyl-[Asp^3,Asu^2,7]-c-CGRP] (DTAT[Asu]VTHRLADFLSRSGGVGKNNFVPTNVGSKAF-NH2; lactam N-5) |  |  | more than 2 hours | more than 30% |  |  | significantly strong as compared with c-CGRP | stronger than that of h-CGRP | more than 10.25 |  |  | more than 2 hours | more than 30% |  |  | significantly strong as compared with c-CGRP | stronger than that of h-CGRP |
| CC(C)C[C@H](NC(=O)[C@H](CCCNC(=N)N)NC(=O)[C@H](Cc1c[nH]cn1)NC(=O)[C@@H](NC(=O)[C@@H](NC(=O)[C@@H]1CCCCCC(=O)N[C@@H](CC(N)=O)C(=O)N[C@@H]([C@@H](C)O)C(=O)N[C@@H](C)C(=O)N[C@@H]([C@@H](C)O)C(=O)N1)C(C)C)[C@@H](C)O)C(=O)N[C@@H](C)C(=O)N[C@@H](CC(=O)O)C(=O)N[C@@H](Cc1ccccc1)C(=O)N[C@@H](CC(C)C)C(=O)N[C@@H](CO)C(=O)N[C@@H](CCCNC(=N)N)C(=O)N[C@@H](CO)C(=O)NCC(=O)NCC(=O)N[C@H](C(=O)NCC(=O)N[C@@H](CCCCN)C(=O)N[C@@H](CC(N)=O)C(=O)N[C@@H](CC(N)=O)C(=O)N[C@@H](Cc1ccccc1)C(=O)N[C@H](C(=O)N1CCC[C@H]1C(=O)N[C@H](C(=O)N[C@@H](CC(N)=O)C(=O)N[C@H](C(=O)NCC(=O)N[C@@H](CO)C(=O)N[C@@H](CCCCN)C(=O)N[C@@H](C)C(=O)N[C@@H](Cc1ccccc1)C(N)=O)C(C)C)[C@@H](C)O)C(C)C)C(C)C [desalanyl-[Asu^2,7]-c-CGRP] (NTAT[Asu]VTHRLADFLSRSGGVGKNNFVPTNVGSKAF-NH2; lactam N-5) |  |  | more than 2 hours | more than 30% |  |  | significantly strong as compared with c-CGRP | stronger than that of h-CGRP | more than 10.25 |  |  | more than 2 hours | more than 30% |  |  | significantly strong as compared with c-CGRP | stronger than that of h-CGRP |
